For one assay, the target named is D2 receptors. The assay can be described thus: D2 receptor binding (displacement of 0.5 nM 3H-YM 09151-2). Also noted: species or system African Green monkey. Particulars: pellets of COS cells with recombinant D2, nonspecific binding with 1 mM spiperone. The procedure:
(§1) Assay for D2 and D3 Receptor Binding Activity
(§2) Pellets of COS cells containing recombinantly produced D2 or D3 receptors from African Green monkey were used for the assays. The sample is homogenized in 100 volumes (w/vol) of 0.05 M Tris HCl buffer at 4° C. and pH 7.4. The sample is then centrifuged at 30,000 ×g and resuspended and rehomogenized. The sample is then centrifuged as described and the final tissue sample is frozen until use. The tissue is resuspended 1:20 (wt/vol) in 0.05 M Tris HCl buffer containing 100 mM NaCl.
The binding characteristics of representative compounds of the invention for D2 and D3 receptor subtypes are shown in Table 2 for rat striatal homogenates.

The target of another assay is T1, D3 receptors (Chlorocebus aethiops, UniProt P52703).
T1 construct: expressed in transfected cells; host or cells: COS cells
Kind of assay: D3 receptor binding (displacement of 0.5 nM 3H-YM 09151-2). Particulars: pellets of COS cells with recombinant D3, nonspecific binding with 1 mM spiperone. Also noted: species or system African Green monkey. The procedure: as §1, §2
Incubations are carried out at 48° C. and contain 0.4 ml of tissue sample, 0.5 nM ^3 H-YM 09151-2 and the compound of interest in a total incubation of 1.0 ml. Nonspecific binding is defined as that binding found in the presence of […] spiperone; without further additions, nonspecific binding is less than 20% of total binding. The binding characteristics of representative compounds of the invention for D2 and D3 receptor subtypes are shown in Table 2 for rat striatal homogenates.

Counter-ions that a name gives are not always drawn.

T1 sequence (P52703 whole entry): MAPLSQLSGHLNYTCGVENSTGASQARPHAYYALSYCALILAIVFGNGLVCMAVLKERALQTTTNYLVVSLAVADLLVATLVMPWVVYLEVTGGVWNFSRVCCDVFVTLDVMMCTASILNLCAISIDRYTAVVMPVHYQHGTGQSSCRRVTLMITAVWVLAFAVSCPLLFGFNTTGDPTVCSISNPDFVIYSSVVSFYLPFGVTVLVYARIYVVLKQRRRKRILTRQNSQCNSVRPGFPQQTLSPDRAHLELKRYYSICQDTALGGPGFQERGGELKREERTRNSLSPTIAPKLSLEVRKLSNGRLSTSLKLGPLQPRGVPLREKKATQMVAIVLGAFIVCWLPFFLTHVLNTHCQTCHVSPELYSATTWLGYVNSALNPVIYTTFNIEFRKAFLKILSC

Turning to `O=C(NCCCCN1CCN(c2cccc(Cl)c2Cl)CC1)c1ccc2c(c1)C(=O)c1ccccc1C2=O` [Compound 1, N-(1-{4-[4-(2,3-Dichlorophenyl)piperazin-1-yl]}butyl)-2anthraquinonecarboxamide hydrochloride], the results for the Ki at D2 receptors and on D3 receptors were 154 nM and 4 nM, respectively.

In the case of `Cc1c(Cl)cccc1N1CCN(CCCCNC(=O)c2ccc3c(c2)C(=O)c2ccccc2C3=O)CC1` [Compound 4, N-(1-{4-[4-(2-Methyl-3-chlorophenyl)piperazin-1-yl]}butyl)-2-anthraquinonecarboxamide hydrochloride], the Ki on D2 receptors stood at 61 nM; on D3 receptors, 2 nM.

For the compound “N-(1-{4-[4(8-Quinolinyl)piperazin-1-yl]}butyl)-2-anthraquinonecarboxamide hydrochloride [Compound 6]”, the Ki on D2 receptors was 45 nM.

Broadly, the Ki is a measure of affinity in units of concentration, obtained from inhibition or displacement.

Source of the values: US5922879A, “N-aminoalkyl-2-anthraquinonecarboxamides: new dopamine receptor subtype specific ligands” (Neurogen Corporation, priority 1997, dated 1999).
